Assay results from ChEMBL document CHEMBL4373664, “Importance of lipophilicity for potent anti-herpes simplex virus-1 activity of α-hydroxytropolones” (Medchemcomm, 2019).
The source made the active and inactive calls. The calls are words filed in the database; no cut-off is given here.

What was measured:
Human alphaherpesvirus 1 [1] = assay: Antiviral activity against HSV-1 infected in African green monkey Vero cells assessed as suppression of viral replication at 5 uM after 24 hrs by plaque reduction assay based phase contrast microscopy; format: functional
Human alphaherpesvirus 1 [2] = assay: Antiviral activity against HSV-1 infected in African green monkey Vero cells assessed as suppression of viral replication at 1 uM after 24 hrs by plaque reduction assay based phase contrast microscopy; format: functional
Human alphaherpesvirus 1 [3] = assay: Antiviral activity against HSV-1 infected in African green monkey Vero cells assessed as suppression of viral replication at 0.2 uM after 24 hrs by plaque reduction assay based phase contrast microscopy; format: functional
[4] = Therapeutic index, ratio of CC50 for African green monkey Vero cells to EC50 for HSV-1 infected in African green monkey Vero cells; format: toxicity; conditions: read-out: Ratio CC50/EC50
Human alphaherpesvirus 1 [5] = assay: Antiviral activity against HSV-1 infected in African green monkey Vero cells assessed as suppression of viral replication after 24 hrs by plaque reduction assay based phase contrast microscopy; format: functional, organism-based; conditions: Human alphaherpesvirus 1, Vero
[6] = Cytotoxicity against African green monkey Vero cells incubated for 24 hrs by MTT assay; format: cell-based; conditions: chlorocebus sabaeus
Human alphaherpesvirus 1 [7] = assay: Antiviral activity against HSV-1 infected in African green monkey Vero cells assessed as suppression of viral replication at 1 uM after 24 hrs by plaque reduction assay based phase contrast microscopy relative to control; format: functional
[8] = Inhibition of NTS in HSV-1 infected in African green monkey Vero cells assessed as suppression of viral replication by measuring viral titer after 24 hrs by plaque reduction assay based phase contrast microscopy; format: cell-based; conditions: Human alphaherpesvirus 1, Vero
[9] = Inhibition of NTS in HSV-2 infected in African green monkey Vero cells assessed as suppression of viral replication by measuring viral titer after 24 hrs by plaque reduction assay based phase contrast microscopy; format: cell-based; conditions: Human alphaherpesvirus 2, Vero
[10] = Cytotoxicity against African green monkey Vero cells incubated for 72 hrs by MTS assay; format: cell-based; conditions: chlorocebus sabaeus

Row | EC50 (Human alphaherpesvirus 1 [5]) | SMILES | log(activity) (Human alphaherpesvirus 1 [1]) | log(activity) (Human alphaherpesvirus 1 [2]) | log(activity) (Human alphaherpesvirus 1 [3]) | selectivity ratio [4] | CC50 at 24 h [6] | fold change (FC) (Human alphaherpesvirus 1 [7]) | EC50 [8] | EC50 [9] | CC50 at 72 h [10]
1 | – | Cc1cc(O)c(=O)c(O)cc1C(=O)c1cccc(-c2cccc3ccccc23)c1 | 4.6 | 3.15 | 0.15 | – | – | – | – | – | –
2 | 140 nM | CCCCCCCCCCCCCC(=O)c1cc(O)c(=O)c(O)cc1C | 4.31 | 1.58 | 0.36 | 631 | 91000 nM | >10 | – | – | –
3 | – | Cc1cc(O)c(=O)c(O)cc1C(=O)c1ccccc1 | 4.21 | 0.11 | inactive | – | – | – | – | – | –
4 | 1100 nM | CCCCCCCCCC(=O)c1cc(O)c(=O)c(O)cc1C | 3.78 | 0.07 | inactive | > 92 | > 100000 nM | – | – | – | –
5 | – | Cc1cc(O)c(=O)c(O)cc1C(=O)c1ccccc1O | 3.86 | 0.86 | 0.1 | – | – | – | – | – | –
6 | 26000 nM | Cc1cc(O)c(=O)c(O)cc1C(=O)C(C)C | -0.01 | inactive | inactive | 3.6 | 91000 nM | – | – | – | –
7 | – | Cc1cc(O)c(=O)c(O)cc1C(=O)c1ccc2ccccc2c1 | 4.08 | 3.82 | 0.28 | – | – | >10 | – | – | –
8 | – | Cc1cc(O)c(=O)c(O)cc1C(=O)c1cccc(Br)c1 | 5.46 | 0.21 | 0.09 | – | – | – | – | – | –
9 | 630 nM | Cc1cc(O)c(=O)c(O)cc1C(=O)C1CCCCC1 | 5.14 | 0.76 | 0.62 | 116 | 73000 nM | – | – | – | –
10 | – | CC(C)=CCc1ccc(=O)c(O)cc1C(C)C | – | – | – | – | 100000 nM | – | 240 nM | 220 nM | –
11 | – | Cc1cc(O)c(=O)c(O)cc1C(=O)c1cccc([N+](=O)[O-])c1 | 4.2 | 0.9 | 0.23 | – | – | – | – | – | –
12 | 350 nM | CCCCCCCCCCCC(=O)c1cc(O)c(=O)c(O)cc1C | 4.84 | 3.23 | 0.29 | 255 | 95000 nM | >10 | – | – | –
13 | – | Cc1cc(O)c(=O)c(O)cc1C(=O)c1ccc(-c2ccc3ccccc3c2)cc1 | 4.28 | 3.54 | 1.34 | – | – | – | – | – | –
14 | – | Cc1cc(O)c(=O)c(O)cc1-c1ccc(-c2ccc3ccccc3c2)cc1 | 4.15 | 0.57 | -0.03 | – | – | – | – | – | –
15 | – | Cc1cc(O)c(=O)c(O)cc1C(=O)c1ccco1 | 4.52 | 0.41 | -0.1 | – | – | – | – | – | –
16 | – | Cc1cc(O)c(=O)c(O)cc1C(=O)c1cccs1 | 0.92 | -0.06 | 0.16 | – | – | – | – | – | –

Row | EC50 (Human alphaherpesvirus 1 [5]) | SMILES | log(activity) (Human alphaherpesvirus 1 [1]) | log(activity) (Human alphaherpesvirus 1 [2]) | log(activity) (Human alphaherpesvirus 1 [3]) | selectivity ratio [4] | CC50 at 24 h [6] | fold change (FC) (Human alphaherpesvirus 1 [7]) | EC50 [8] | EC50 [9] | CC50 at 72 h [10]
17 | 170 nM | Cc1cc(O)c(=O)c(O)cc1C(=O)c1ccc(-c2ccccc2)cc1 | 4.72 | 4.86 | 0.43 | > 600 | > 100000 nM | – | 120 nM | 81 nM | > 100000 nM
18 | – | COc1ccc(C(=O)c2cc(O)c(=O)c(O)cc2C)cc1 | 3.94 | 0.92 | 0.02 | – | – | – | – | – | –
19 | – | Cc1cc(O)c(=O)c(O)cc1S(=O)(=O)c1ccccc1 | 0.34 | 0.81 | inactive | – | – | – | – | – | –
20 | 440 nM | CCCCCCCC(=O)c1cc(O)c(=O)c(O)cc1C | 4.84 | 0.2 | 0.13 | 185 | 81000 nM | – | – | – | –
21 | – | Cc1cc(O)c(=O)c(O)cc1C(=O)c1cccc(-c2ccc3ccccc3c2)c1 | 4.11 | 3.03 | 0.14 | – | – | – | – | – | –
22 | – | Cc1cc(O)c(=O)c(O)cc1C(=O)c1ccc([N+](=O)[O-])cc1 | 3.91 | 0.6 | 0.03 | – | – | – | – | – | –
23 | – | Cc1cc(O)c(=O)c(O)cc1-c1ccc(-c2ccccc2)cc1 | 4.08 | 4.09 | -0.05 | – | > 100000 nM | – | 180 nM | 210 nM | > 100000 nM
24 | – | CC(C)c1ccc(O)c(=O)c(O)c1 [BETA-THUJAPLICINOL] | – | – | – | – | > 100000 nM | – | 2000 nM | 1700 nM | –
25 | 1200 nM | CC(=O)c1cc(O)c(=O)c(O)cc1C | 0.48 | inactive | inactive | > 83 | > 100000 nM | – | – | – | –
26 | – | Cc1cc(O)c(=O)c(O)cc1-c1cccc(-c2ccccc2)c1 | 4.28 | 4.26 | 0.02 | – | – | – | – | – | –
27 | 60 nM | Cc1cc(O)c(=O)c(O)cc1C(=O)c1ccc2ccc3cccc4ccc1c2c34 | 5.76 | 5.01 | 0.93 | > 1800 | > 100000 nM | – | – | – | –
28 | – | Cc1cc(O)c(=O)c(O)cc1-c1cccc(-c2ccc3ccccc3c2)c1 | 4.1 | 0.66 | 0.06 | – | – | – | – | – | –
29 | – | Cc1cc(O)c(=O)c(O)cc1S(=O)(=O)c1ccc(-c2ccccc2)cc1 | 4.44 | -0.34 | inactive | – | – | – | – | – | –
30 | – | Cc1cc(O)c(=O)c(O)cc1C(=O)c1ccc(Br)cc1 | 5.4 | 0.42 | 0.09 | – | – | – | – | – | –
31 | – | Cc1cc(O)c(=O)c(O)cc1-c1cccc(-c2cccc3ccccc23)c1 | 4.02 | 4 | 0.04 | – | – | – | – | – | –
32 | – | C=C(C)[C@@H]1CCc2c(c(C)cc(O)c(=O)c2O)C1 | – | – | – | – | 100000 nM | – | 350 nM | 580 nM | –
